Test system: SCC23 cells
Test: RNA-Seq and GO analysis in SCC23 cells
Assay type: cell-based, human
Procedure: Total RNA was isolated from PTC209-treated or shBMI1 knockdown SCC cells using a RNeasy Micro Kit (QIAGEN, Cat #74004). RNA quality was examined using an Agilent 2100 Bioanalyzer. Library preparation using the KAPA RNA-Seq Library Preparation Kits (KAPA Biosystems, Cat #07960140001) was performed at the UCLA sequencing core facility, and RNAs were single-end sequenced on Illumina HiSeq 3000 machines. The online DAVID bioinformatics resources were used to analyze the differentially expressed genes under the category of GOTERM_BP_DIRECT. The heatmap was generated with Heatmap Builder. The raw data was deposited at the Gene Expression Omnibus (GEO) under the subseries entry GSE140433.

COc1cc(Br)c(Nc2nc(-c3c(C)nc4ncccn34)cs2)c(Br)c1 [PTC209, N-(2,6-dibromo-4-methoxyphenyl)-4-(2-methylimidazo[1,2-a]pyrimidin-3-yl)thiazol-2-amine]
IFN-regulated chemokines (CCL5, CXCL9, CXCL10, and CXCL11), RNA-seq heatmap: significantly increased | GO analysis of induced genes (RNA-Seq): induced the expression of genes associated with immune response and chemotaxis

Source: patent publication US20230233566A1, “INHIBITION OF BMI1 ELIMINATES CANCER STEM CELLS AND ACTIVATES ANTITUMOR IMMUNITY” (The Regents of the University of California, priority 2020, published 2023)
